Data: article PMC548510, “Inhibition of early steps in the lentiviral replication cycle by cathelicidin host defense peptides” (Retrovirology, 2005)
Read-outs that look alike come from different tables or passages of the source.

Columns and labels:
P. aeruginosa = experiment: radial diffusion assay (growth inhibition); type: cell-based, Pseudomonas aeruginosa (ATCC 27853); details: 1% agarose underlay, 10 mM sodium phosphate, 100 mM NaCl, pH 7.4, 3 individual experiments, quadruplicates, > 128 = not susceptible
[1] = tested on: retroviral vector (pRV-172) containing the amphotropic MLV Env; type: cell-based
[2] = tested on: VSV-G pseudotyped lentiviral vector VLΔBH
S. epidermidis = experiment: radial diffusion assay (growth inhibition); type: cell-based, Staphylococcus epidermidis (ATCC 12228); details: 1% agarose underlay, 10 mM sodium phosphate, 100 mM NaCl, pH 7.4, 3 individual experiments, quadruplicates
E. faecalis = experiment: radial diffusion assay (growth inhibition); type: cell-based, Enterococcus faecalis (ATCC 29212); details: 1% agarose underlay, 10 mM sodium phosphate, 100 mM NaCl, pH 7.4, 3 individual experiments, quadruplicates
[3] = tested on: HIV vectors containing the HIV-1 envelope; set-up: IC50, HIV-1 Env mediated vector entry, as printed in the picture of Figure 6 A, B: unit not given beside the values
A. baumanii = experiment: radial diffusion assay (growth inhibition); type: cell-based, Acinetobacter baumannii (ATCC 19606); details: 1% agarose underlay, 10 mM sodium phosphate, 100 mM NaCl, pH 7.4, 3 individual experiments, quadruplicates, > 128 = not susceptible
S. aureus = type: cell-based, Staphylococcus aureus (ATCC 25923); details: radial diffusion, 1% agarose underlay, 10 mM sodium phosphate, 100 mM NaCl, pH 7.4, 3 individual experiments, quadruplicates
P4CCR5 cells = experiment: BrdU incorporation cell proliferation assay; type: cell-based
Protocol: 293-Luc cells were plated in 96 well plates at a density of 2 × 10^3 cells / well. After 48 hours, 50 μl of MTT-solution (3 mg/ml) was added and incubated at 37° C under 5% CO2 for 1 hour. After this time medium was removed and 100 μl 0.04 N HCL + 10% SDS was used to dissolve the resulting blue formazan crystals in living cells. The optical density was determined at 550 nm. Each single value of the triplicates was expressed as percent of the mean of triplicates of control cultures infected with the same vector in the absence of HDPs and the mean and the standard deviation of the percent values was calculated for each triplicate. In addition the BrdU Cell proliferation ELISA with chemiluminescence detection (Roche Diagnostics GmbH, Mannheim, Germany) was performed. After 293-Luc cells or P4CCR5 cells were plated in 96 well plates at a density of 2 × 10^3 cells/well BrdU (5-bromo-2'-deoxyuridine) was added to the cells with a resulting concentration of 10 μM for the last 22 h of the incubation period. After removing the culture medium, the cells were fixed and DNA was denatured in one step with Fixdenat. Thereafter the cells were incubated with Anti-BrdU-POD for 1 h at room temperature. The chemiluminescence detection was measured after automatic injection of substrate solution with a microplate-luminometer (Orion, Berthold detection systems, Pforzheim, Germany).
To determine the effect of HDPs on vector infectivity and cell metabolism, 293A target cells were plated in triplicates into 96-well plates at 2 × 10^3 cells / well. […] The affect of HDPs on cell metabolism was determined in parallel by plating 293-Luc cells exactly the same way as 293A cells and the luciferase activity was determined after one (as a control to inhibition of adenoviral vector infectivity) or two (as a control of lentiviral infectivity) days of incubation with HDPs. For GFP-expressing vectors, vector titers were calculated from the number of GFP positive cells per well as previously described and the BrdU incorporation assay was used to monitor cytotoxic effects.

wild type HIV-1 = tested on: wild type HIV-1; set-up: IC50, wild type HIV-1 infection, as printed in the picture of Figure 6 C, D: unit not given beside the values; details: for IC50, wild type HIV-1 infection, as printed in the picture of Figure 6 C, D: P4CCR5 indicator cells, virus titer
E. coli = type: cell-based, Escherichia coli (ATCC 25922); details: radial diffusion, 1% agarose underlay, 10 mM sodium phosphate, 100 mM NaCl, pH 7.4, 3 individual experiments, quadruplicates

Compound	M E C (minimal effectory concentration) (P. aeruginosa)	dose dependent reduction in luciferase activity, MLV vector compared with lentiviral vector [1]	50% inhibitory concentration (IC50) for the VLΔBH lentiviral vector [2]	specific inhibition of early steps of infection (lentiviral vector versus stably transduced target cells) [2]	M E C (minimal effectory concentration) (S. epidermidis)	M E C (minimal effectory concentration) (E. faecalis)	IC50, HIV-1 Env mediated vector entry, as printed in the picture of Figure 6 A, B [3]	M E C (minimal effectory concentration) (A. baumanii)	M E C (minimal effectory concentration) (S. aureus)	concentration up to which inhibitory effects on cell proliferation were not observed (P4CCR5 cells)	inhibitory effects on cell proliferation at the IC50 concentrations (25 μg/ml LL37, 14 μg/ml PG-1) (P4CCR5 cells)	IC50, wild type HIV-1 infection, as printed in the picture of Figure 6 C, D (wild type HIV-1)	IC50 against wild type HIV-1 (wild type HIV-1; wild type)	M E C (minimal effectory concentration) (E. coli)	dose dependent reduction in luciferase activity, MLV vector compared with lentiviral vector ([1]; 293A cells, triplicates of two independent experiments)	IC50, HIV-1 Env mediated vector entry, as printed in the picture of Figure 6 A, B ([3]; P4CCR5 cells, GFP vector titer)	IC50, inhibition of HIV vectors containing the HIV-1 envelope ([3]; vectors containing the envelope)
CC(C)C[C@H](NC(=O)[C@H](CCCNC(=N)N)NC(=O)CNC(=O)CNC(=O)[C@@H](N)CCCNC(=N)N)C(=O)N[C@H]1CSSC[C@@H](C(=O)N[C@H](C(=O)NCC(=O)N[C@@H](CCCNC(=N)N)C(N)=O)C(C)C)NC(=O)[C@H](C(C)C)NC(=O)[C@@H]2CSSC[C@H](NC(=O)[C@H](Cc3ccc(O)cc3)NC1=O)C(=O)N[C@@H](CCCNC(=N)N)C(=O)N[C@@H](CCCNC(=N)N)C(=O)N[C@@H](CCCNC(=N)N)C(=O)N[C@@H](Cc1ccccc1)C(=O)N2 [Protegrin-1]	3,3 ± 1,1 μg/ ml	very similar	~16.8 µg/mL	Specific inhibition	4,48 ± 0,2 μg/ ml	4,46 ± 0,3 μg/ ml	14.3	5,01 ± 0,2 μg/ ml	0,91 ± 0,04 μg/ ml	> 50 µg/mL	only minimal inhibitory effects	7.2	below 10 μg/ml	2 ± 0,1 μg/ ml	–	–	–
Plectasin	> 128 µg/mL	–	–	–	8,20 ± 0,5 μg/ ml	10,60 ± 0,7 μg/ ml	–	> 128 µg/mL	2,42 ± 0,4 μg/ ml	–	–	–	–	79,10 ± 0,3 μg/ ml	–	–	–
CC[C@H](C)[C@H](NC(=O)[C@H](CCCCN)NC(=O)[C@H](CCC(=O)O)NC(=O)[C@H](CCCCN)NC(=O)[C@H](CO)NC(=O)[C@H](CCCCN)NC(=O)[C@H](CCCNC(=N)N)NC(=O)[C@H](Cc1ccccc1)NC(=O)[C@H](Cc1ccccc1)NC(=O)[C@H](CC(=O)O)NC(=O)CNC(=O)[C@H](CC(C)C)NC(=O)[C@@H](N)CC(C)C)C(=O)NCC(=O)N[C@@H](CCCCN)C(=O)N[C@@H](CCC(=O)O)C(=O)N[C@@H](Cc1ccccc1)C(=O)N[C@@H](CCCCN)C(=O)N[C@@H](CCCNC(=N)N)C(=O)N[C@H](C(=O)N[C@H](C(=O)N[C@@H](CCC(N)=O)C(=O)N[C@@H](CCCNC(=N)N)C(=O)N[C@H](C(=O)N[C@@H](CCCCN)C(=O)N[C@@H](CC(=O)O)C(=O)N[C@@H](Cc1ccccc1)C(=O)N[C@@H](CC(C)C)C(=O)N[C@@H](CCCNC(=N)N)C(=O)N[C@@H](CC(N)=O)C(=O)N[C@@H](CC(C)C)C(=O)N[C@H](C(=O)N1CCC[C@H]1C(=O)N[C@@H](CCCNC(=N)N)C(=O)N[C@H](C(=O)N[C@@H](CCC(=O)O)C(=O)N[C@@H](CO)C(=O)O)[C@@H](C)O)C(C)C)[C@@H](C)CC)C(C)C)[C@@H](C)CC [LL37]	–	–	approximately 30 μg/ml	Specific inhibition	13,09 ± 0,6 μg/ ml	13,61 ± 0,7 μg/ ml	–	13,13 ± 0,2 μg/ ml	4,74 ± 0,1 μg/ ml	–	only minimal inhibitory effects	87.8	–	11,66 ± 1,5 μg/ ml	very similar	25.1	25 µg/mL
CC1(C)S[C@@H]2[C@H](NC(=O)[C@H](N)c3ccccc3)C(=O)N2[C@H]1C(=O)O [Ampicillin]	–	–	–	–	–	28,85 ± 0,6 μg/ ml	–	–	10,50 ± 0,2 μg/ ml	–	–	–	–	18,9 ± 0,9 μg/ ml	–	–	–
